Laboratory results: patent US8133847B2, “Pyrido[2,3-B]pyrazine derivatives useful as herbicidal compounds” (Syngenta Limited, priority 2006, dated 2012)

Tests used:
Experiment in all cases: Example B1 herbicidal action, post-emergence, 96-cell seed trays, climatic chamber
Assay type in all cases: in vivo
Solanum nigrum (SOLNI) = details: Application post-emergence, 1000 mg/l spray equivalent to 1000 g/ha, evaluated after 9 days (100=total damage to plant, 0=no damage to plant)
Method: (§1) Seeds of a variety of test species were sown in sterilised standard soil in seed trays each having 96 cells. After cultivation for 8 to 9 days cultivation (post-emergence) under controlled conditions in a climatic chamber (cultivation at 23/17° C., day/night; 13 hours light; 50-60% humidity), the plants were treated with an aqueous spray solution of 1000 mg/l of the active ingredient dissolved in 10% DMSO (dimethyl sulfoxide, CAS RN 67-68-5) as a solvent, equivalent to 1000 g/ha. The plants were grown in the climatic chamber after application at (24/19° C., day/night; 13 hours light; 50-60% humidity) and watered twice daily. After 9 days until the test was evaluated (100=total damage to plant, 0=no damage to plant)

Stellaria media (STEME) = details: Application post-emergence, 1000 mg/l spray equivalent to 1000 g/ha, evaluated after 9 days (100=total damage to plant, 0=no damage to plant)
Method: as §1

[1] = test system: Amaranthus retroflexus (AMARE); details: Application post-emergence, 1000 mg/l spray equivalent to 1000 g/ha, evaluated after 9 days
Method: as §1

[2] = test system: Nasturtium officinale (NAAOF); design: scale not given here; details: Application post-emergence, 1000 mg/l spray equivalent to 1000 g/ha, evaluated after 9 days (100=total damage to plant, 0=no damage to plant)
Method: as §1

| SMILES | damage to plant, Solanum nigrum (SOLNI) (Solanum nigrum (SOLNI)) | damage to plant, Stellaria media (STEME) (Stellaria media (STEME)) | damage to plant, Amaranthus retroflexus (AMARE) [1] | damage to plant, Nasturtium officinale (NAAOF) [2] |
| --- | --- | --- | --- | --- |
| Cn1c(=O)c(-c2ccc(Cl)cc2Cl)c(O)c2nccnc21 [Compound D3] | 8 | 8 | 0 | 8 |
| O=c1[nH]c2nccnc2c(O)c1-c1cccc(C(F)(F)F)c1Cl [Compound A32] | 2 | 0 | 0 | 0 |
| CCC(C(=O)Oc1c(-c2c(F)ccc(F)c2Cl)c(=O)n(C)c2nccnc12)c1ccccc1 (centres unmarked) [Compound C94] | 4 | 6 | 5 | 7 |
| Cc1ccc(Cl)c(-c2c(OC(=O)C(C)(C)C)c3nccnc3n(C)c2=O)c1F [Compound C116] | 4 | 4 | 0 | 2 |
| CC(C)C(=O)Oc1c(-c2c(F)ccc(F)c2F)c(=O)n(C)c2nccnc12 [Compound C58] | 0 | 8 | 6 | 7 |
| CCn1c(=O)c(-c2c(F)ccc(F)c2Cl)c(OC(C)=O)c2nccnc21 [Compound C13] | 2 | 8 | 8 | 8 |
| C=CCC(=O)Oc1c(-c2c(F)ccc(F)c2Cl)c(=O)n(CC=C)c2nccnc12 [Compound C113] | 6 | 8 | 7 | 6 |
| O=c1[nH]c2nccnc2c(O)c1-c1cc(Cl)ccc1C(F)(F)F [Compound A19] | 7 | 5 | 6 | 5 |
| CC(C)C(=O)Oc1c(-c2ccc(F)cc2Cl)c(=O)[nH]c2nccnc12 [Compound B2] | 0 | 0 | 5 | 0 |
| O=c1[nH]c2nccnc2c(O)c1-c1cccc(Cl)c1Cl [Compound A4] | 2 | 1 | 5 | 2 |
| O=c1[nH]c2nccnc2c(O)c1-c1ccc(F)cc1Cl [Compound A10] | 0 | 2 | 9 | 2 |
| Cn1c(=O)c(-c2c(F)ccc(F)c2Cl)c(OC(=O)c2cccs2)c2nccnc21 [Compound C91] | 8 | 8 | 7 | 4 |
| COCCn1c(=O)c(-c2c(F)ccc(F)c2Cl)c(OC(=O)C(C)C)c2nccnc21 [Compound C15] | 1 | 5 | 0 | 6 |
| O=c1[nH]c2nccnc2c(O)c1-c1ccccc1C(F)(F)F [Compound A8] | 0 | 2 | 5 | 7 |
| CC(C)C(=O)Oc1c(-c2cc(Cl)cc(Cl)c2Cl)c(=O)n(C)c2nccnc12 [Compound C68] | 0 | 5 | 0 | 5 |
| CCCC(=O)Oc1c(-c2c(Cl)cccc2Cl)c(=O)n(C)c2nccnc12 [Compound C38] | 7 | 7 | 5 | 7 |
| CCCC(C)C(=O)Oc1c(-c2c(F)ccc(F)c2Cl)c(=O)n(C)c2nccnc12 (centres unmarked) [Compound C95] | 5 | 7 | 6 | 7 |
| CCn1c(=O)c(-c2c(C)cc(C)cc2C)c(OC(=O)C(C)C)c2nccnc21 [Compound C103] | 7 | 7 | 4 | 6 |

| SMILES | damage to plant, Solanum nigrum (SOLNI) (Solanum nigrum (SOLNI)) | damage to plant, Stellaria media (STEME) (Stellaria media (STEME)) | damage to plant, Amaranthus retroflexus (AMARE) [1] | damage to plant, Nasturtium officinale (NAAOF) [2] |
| --- | --- | --- | --- | --- |
| CCCC(CCC)C(=O)Oc1c(-c2c(F)ccc(F)c2Cl)c(=O)n(C)c2nccnc12 [Compound C96] | 3 | 6 | 5 | 3 |
| C=CCn1c(=O)c(-c2c(Cl)cccc2Cl)c(OC(=O)OCC)c2nccnc21 [Compound C39] | 7 | 6 | 7 | 6 |
| CCn1c(=O)c(-c2cc(C(F)(F)F)cc(C(F)(F)F)c2)c(OC(C)=O)c2nccnc21 [Compound C104] | 0 | 0 | 2 | 4 |
| CCOC(=O)Oc1c(-c2c(Cl)cccc2Cl)c(=O)n(C)c2nccnc12 [Compound C36] | 6 | 5 | 5 | 7 |
| CCn1c(=O)c(-c2ccccc2OC)c(OC(=O)C(C)C)c2nccnc21 [Compound C70] | 0 | 3 | 0 | 4 |
| CC(C)=CC(=O)Oc1c(-c2c(F)ccc(F)c2Cl)c(=O)n(C)c2nccnc12 [Compound C90] | 8 | 7 | 3 | 6 |
| CCn1c(=O)c(-c2cc(C(F)(F)F)ccc2Cl)c(OC(=O)C(C)(C)C)c2nccnc21 [Compound C122] | 6 | 7 | 6 | 4 |
| Cn1c(=O)c(-c2ccccc2C(F)(F)F)c(OC(=O)C(C)(C)C)c2nccnc21 [Compound C109] | 6 | 0 | 3 | 4 |
| CCC(=O)Oc1c(-c2ccccc2OC(F)(F)F)c(=O)n(C)c2nccnc12 [Compound C28] | 2 | 7 | 2 | 7 |
| CCn1c(=O)c(-c2cccc(C(F)(F)F)c2Cl)c(OC(=O)C(C)C)c2nccnc21 [Compound C78] | 4 | 6 | 6 | 8 |
| CCC(=O)Oc1c(-c2c(Cl)cccc2Cl)c(=O)[nH]c2nccnc12 [Compound B11] | 0 | 1 | 8 | 3 |
| CC(C)C(=O)Oc1c(-c2cc(C(F)(F)F)ccc2Cl)c(=O)[nH]c2nccnc12 [Compound B38] | 0 | 0 | 4 | 4 |
| O=c1[nH]c2nccnc2c(O)c1-c1ccccc1OC(F)(F)F [Compound A13] | 0 | 3 | 5 | 0 |
| Cn1c(=O)c(-c2c(F)ccc(F)c2Cl)c(OC(=O)c2ccco2)c2nccnc21 [Compound C86] | 7 | 6 | 7 | 6 |
| O=c1[nH]c2nccnc2c(O)c1-c1cc(C(F)(F)F)ccc1Cl [Compound A34] | 2 | 4 | 6 | 4 |
| Cc1ccc(F)c(-c2c(O)c3nccnc3[nH]c2=O)c1Cl [Compound A35] | 4 | 0 | 4 | 3 |
| Cc1cc(C)c(-c2c(O)c3nccnc3[nH]c2=O)c(C)c1 [Compound A30] | 0 | 4 | 7 | 3 |
